Laboratory results published in article PMC10114980, “Triple targeting of mutant EGFR^L858R/T790M, COX-2, and 15-LOX: design and synthesis of novel quinazolinone tethered phenyl urea derivatives for anti-inflammatory and anticancer evaluation” (Journal of Enzyme Inhibition and Medicinal Chemistry, 2023).

Legend:
MDA-MB-231/ATCC = assay: NCI single dose screen, MDA-MB-231/ATCC; format: cell-based; settings: Homo sapiens, breast cancer, single dose 10^−5 M, read-out: growth inhibition percentage
Description: (§1) Screening of the anticancer activity of the newly synthesised compounds (6a, 6c, 6d, 6e, 6j, 6l, 6m, 6n, 6o, and 6p) was performed by the US National Cancer Institute (NCI) using 60 different human tumour cell lines in accordance with standard procedures formerly reported.
(§2) In vitro anticancer screening was carried out for the selected compounds at a single dose (10^−5 M) against 60 different human tumour cell lines of nine different cancer cell types: leukaemia, lung, colon, CNS, melanoma, ovarian, renal, prostate, and breast cancers.

A549/ATCC = assay: NCI single dose screen, A549/ATCC; format: cell-based; settings: Homo sapiens, non-small cell lung cancer, single dose 10^−5 M, read-out: growth inhibition percentage
Description: as §1, §2

MCF7 = assay: NCI single dose screen, MCF7; format: cell-based; settings: Homo sapiens; MCF7, breast cancer; single dose 10^−5 M; read-out: growth inhibition percentage
Description: as §1, §2

HCT-116 = assay: NCI single dose screen, HCT-116; format: cell-based; settings: Homo sapiens; HCT-116, colon cancer; single dose 10^−5 M; read-out: growth inhibition percentage
Description: as §1, §2

NCI-H522 = assay: NCI single dose screen, NCI-H522; format: cell-based; settings: Homo sapiens; NCI-H522, non-small cell lung cancer; single dose 10^−5 M; read-out: growth inhibition percentage
Description: as §1, §2

HL-60(TB) = assay: NCI single dose screen, HL-60(TB); format: cell-based; settings: Homo sapiens, leukaemia, single dose 10^−5 M, read-out: growth inhibition percentage
Description: as §1, §2

EKVX = assay: NCI single dose screen, EKVX; format: cell-based; settings: Homo sapiens, non-small cell lung cancer, single dose 10^−5 M, read-out: growth inhibition percentage
Description: as §1, §2

OVCAR-5 = assay: NCI single dose screen, OVCAR-5; format: cell-based; settings: Homo sapiens; OVCAR-5, ovarian cancer; single dose 10^−5 M; read-out: growth inhibition percentage
Description: as §1, §2

[1] = molecular target: T1, double mutant EGFR^L858R/T790M (Homo sapiens, UniProt P00533, L858R/T790M); assay: In vitro EGFR inhibition assay, double mutant; format: biochemical; settings: for IC50: double mutant EGFR; for Selectivity (SI): ratio of the IC50 values EGFR^WT/EGFR^L858R/T790M
T1 construct: purchased AssayQuant Technologies, Inc. (Marlboro, MA, USA)

IGROV1 = assay: NCI single dose screen, IGROV1; format: cell-based; settings: Homo sapiens, IGROV-1; IGROV1, ovarian cancer; single dose 10^−5 M; read-out: growth inhibition percentage
Description: as §1, §2

MDA-MB-435 = assay: NCI single dose screen, MDA-MB-435; format: cell-based; settings: Homo sapiens; MDA-MB-435, melanoma; single dose 10^−5 M; read-out: growth inhibition percentage
Description: as §1, §2

COLO 205 = assay: NCI single dose screen, COLO 205; format: cell-based; settings: Homo sapiens; COLO 205, colon cancer; single dose 10^−5 M; read-out: growth inhibition percentage
Description: as §1, §2

HCT-15 = assay: NCI single dose screen, HCT-15; format: cell-based; settings: Homo sapiens; HCT-15, colon cancer; single dose 10^−5 M; read-out: growth inhibition percentage
Description: as §1, §2

MOLT-4 = assay: NCI single dose screen, MOLT-4; format: cell-based; settings: Homo sapiens; MOLT-4, leukaemia; single dose 10^−5 M; read-out: growth inhibition percentage
Description: as §1, §2

[2] = Cell viability assay against normal cell line (MTS); format: cell-based; settings: mouse, RAW 264.7 cells, concentrations up to 50 μM, read-out: cell viability percentage of the control values
Description: To evaluate the possible non-selective cytotoxic effect of the investigated compounds (6a, 6c, 6d, 6e, 6j, 6l, 6m, 6n, 6o, and 6p) on normal cells, their effect on RAW 264.7 cells viability was assessed at different concentrations (12.5, 25, 50, and 100 µM). Cell viability was measured using 3-(4,5-dimethylthiazol-2-yl)-5-(3-carboxymethoxyphenyl)-2-(4 sulfophenyl)-2H-tetrazolium (MTS) assay (Promega, Madison, Wisconsin) according to the manufacturer’s instructions.

LOX IMVI = assay: NCI single dose screen, LOX IMVI; format: cell-based; settings: Homo sapiens, melanoma, single dose 10^−5 M, read-out: growth inhibition percentage
Description: as §1, §2

HS 578T = assay: NCI single dose screen, HS 578T; format: cell-based; settings: Homo sapiens, breast cancer, single dose 10^−5 M, read-out: growth inhibition percentage
Description: as §1, §2

SK-OV-3 = assay: NCI single dose screen, SK-OV-3; format: cell-based; settings: Homo sapiens; SK-OV-3, ovarian cancer; single dose 10^−5 M; read-out: growth inhibition percentage
Description: as §1, §2

SK-MEL-28 = assay: NCI single dose screen, SK-MEL-28; format: cell-based; settings: Homo sapiens; SK-MEL-28, melanoma; single dose 10^−5 M; read-out: growth inhibition percentage
Description: as §1, §2

[3] = test system: LPS-induced ROS production in RAW 264.7 cells; assay: ROS production in LPS-activated RAW 264.7 macrophage cells (DCFH-DA); format: cell-based; settings: LPS-activated RAW 264.7 cells, mean ± SEM, three replicates; for IC50: Mus musculus, RAW264.7
Description: TNF-α and IL-6 production were detected in RAW 264.7 macrophage cell culture supernatants following the induction of inflammation by LPS. Moreover, the probes of oxidative species 2,7-dichlorofluorescein diacetate (DCFH-DA) (Molecular Probes) and NO, 4-amino-5-methylamino-2,7-difluorofluorescein diacetate (DAF-FM diacetate) (Molecular Probes) were used to investigate the antioxidant and NO production inhibitory potential of the test compounds. Briefly, RAW 264.7 cells were cultured in black 96 well plates (200 000 cells/mL, 100 µl/well) for 24 h followed by the incubation with the individual test compounds or the reference drugs at different concentrations (12.5, 25, 50, and 100 µM) for 2 h at 37 °C. LPS was then added at a final concentration of 1 µg/mL for an additional 18 h. The cell culture supernatant was collected from cells treated with the different compounds at 25 µM to measure TNF-α and IL-6 levels (1:10 dilution) using DuoSet ELISA kits (R&D Systems, Minneapolis, MN) following the manufacturer’s instructions. Then, the plates were washed to perform ROS and NO detection assays as detailed in our previous studies[16]^,[27].

MDA-MB-468 = assay: NCI single dose screen, MDA-MB-468; format: cell-based; settings: Homo sapiens; MDA-MB-468, breast cancer; single dose 10^−5 M; read-out: growth inhibition percentage
Description: as §1, §2

T1 sequence (P00533 25-1210 T790M/L858R): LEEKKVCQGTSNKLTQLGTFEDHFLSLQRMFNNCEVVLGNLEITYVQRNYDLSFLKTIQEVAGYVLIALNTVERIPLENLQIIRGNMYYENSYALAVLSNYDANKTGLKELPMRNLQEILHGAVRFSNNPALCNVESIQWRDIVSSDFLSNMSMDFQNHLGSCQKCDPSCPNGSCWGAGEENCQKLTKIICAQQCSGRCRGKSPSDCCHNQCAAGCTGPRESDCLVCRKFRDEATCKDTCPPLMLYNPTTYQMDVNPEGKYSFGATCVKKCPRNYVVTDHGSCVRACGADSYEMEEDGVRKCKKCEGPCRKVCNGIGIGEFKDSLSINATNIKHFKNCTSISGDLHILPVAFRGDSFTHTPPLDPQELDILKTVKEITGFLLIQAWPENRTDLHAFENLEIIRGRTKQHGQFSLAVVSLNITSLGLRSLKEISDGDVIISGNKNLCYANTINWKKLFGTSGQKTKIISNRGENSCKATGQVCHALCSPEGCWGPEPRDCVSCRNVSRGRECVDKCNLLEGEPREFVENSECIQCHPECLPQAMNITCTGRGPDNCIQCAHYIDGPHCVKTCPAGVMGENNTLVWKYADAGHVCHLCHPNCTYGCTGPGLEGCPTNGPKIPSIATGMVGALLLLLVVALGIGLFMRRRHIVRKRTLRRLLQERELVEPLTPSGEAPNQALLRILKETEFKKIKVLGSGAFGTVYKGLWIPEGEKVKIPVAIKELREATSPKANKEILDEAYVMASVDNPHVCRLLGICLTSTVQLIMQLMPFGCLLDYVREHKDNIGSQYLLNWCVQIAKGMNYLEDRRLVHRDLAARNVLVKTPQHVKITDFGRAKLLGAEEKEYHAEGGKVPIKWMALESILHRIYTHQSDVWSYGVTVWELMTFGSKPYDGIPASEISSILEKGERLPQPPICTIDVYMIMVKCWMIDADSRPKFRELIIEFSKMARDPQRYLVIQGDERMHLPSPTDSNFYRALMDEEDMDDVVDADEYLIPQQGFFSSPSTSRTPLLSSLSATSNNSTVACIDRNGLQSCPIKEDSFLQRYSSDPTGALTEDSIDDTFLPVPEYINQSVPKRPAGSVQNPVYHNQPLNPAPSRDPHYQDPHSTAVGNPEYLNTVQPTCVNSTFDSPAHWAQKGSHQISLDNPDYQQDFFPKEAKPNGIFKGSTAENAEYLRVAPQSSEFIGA

| SMILES | inhibition at 10 µM (MDA-MB-231/ATCC) [%] | inhibition at 10 µM (A549/ATCC) [%] | inhibition at 10 µM (MCF7) [%] | inhibition at 10 µM (HCT-116) [%] | inhibition at 10 µM (NCI-H522) [%] | inhibition at 10 µM (HL-60(TB)) [%] | inhibition at 10 µM (EKVX) [%] | inhibition at 10 µM (OVCAR-5) [%] | IC50 [1] [µM] | Selectivity (SI) [1] | inhibition at 10 µM (IGROV1) [%] | inhibition at 10 µM (MDA-MB-435) [%] | inhibition at 10 µM (COLO 205) [%] | inhibition at 10 µM (HCT-15) [%] | inhibition at 10 µM (MOLT-4) [%] | viability [2] [%] | inhibition at 10 µM (LOX IMVI) [%] | inhibition at 10 µM (HS 578T) [%] | inhibition at 10 µM (SK-OV-3) [%] | inhibition at 10 µM (SK-MEL-28) [%] | other results |
| --- | --- | --- | --- | --- | --- | --- | --- | --- | --- | --- | --- | --- | --- | --- | --- | --- | --- | --- | --- | --- | --- |
| CN1c2ccccc2C(=O)N(NC(=O)Nc2ccccc2)C1c1ccc([N+](=O)[O-])cc1 (stereo not shown) [Compound 6e, 1-(1-Methyl-2-(4-nitrophenyl)-4-oxo-1,4-dihydroquinazolin-3(2H)-yl)-3-phenylurea] | < 10 | < 10 | < 10 | 53.1 | < 10 | < 10 | < 10 | < 10 | 5.48 ± 1.33 | 8.9 | < 10 | < 10 | < 10 | < 10 | < 10 | > 90 | < 10 | < 10 | < 10 | < 10 | ROS IC50 [3]: neither compound 6e nor compound 6g inhibited ROS production significantly; IC50 [3]: > 100 µM; inhibition at 10 µM (MDA-MB-468): < 10% |
| CN1c2ccccc2C(=O)N(NC(=O)Nc2ccccc2)C1c1ccccc1 (stereo not shown) [Compound 6c, 1-(1-Methyl-4-oxo-2-phenyl-1,4-dihydroquinazolin-3(2H)-yl)-3-phenylurea] | < 10 | < 10 | < 10 | 16.8 | < 10 | < 10 | < 10 | < 10 | 7.93 ± 1.11 | >12.6 | < 10 | < 10 | < 10 | < 10 | < 10 | > 90 | < 10 | 56.8 | < 10 | < 10 | IC50 [3]: 48.1 ± 1.07 µM; inhibition at 10 µM (MDA-MB-468): < 10% |
| CN1c2ccccc2C(=O)N(NC(=O)Nc2ccccc2)C1c1ccc(F)cc1 (stereo not shown) [Compound 6d, 1-(2-(4-Fluorophenyl)-1-methyl-4-oxo-1,4-dihydroquinazolin-3(2H)-yl)-3-phenylurea] | < 10 | < 10 | < 10 | < 10 | < 10 | < 10 | < 10 | < 10 | 5.57 ± 1.78 | >17.9 | < 10 | < 10 | < 10 | < 10 | 11.1 | > 90 | < 10 | < 10 | < 10 | < 10 | IC50 [3]: 37 ± 1 µM; inhibition at 10 µM (MDA-MB-468): < 10% |
